Experimental data as given in paper PMC5218480 (PLoS ONE, 2017).

System: MV-4-11 cells
Test: Gene expression microarray analysis (Affymetrix PrimeView) and GSEA
Assay type: cell-based, human
Parameters: RFU PODN (11730768_x_at) / Fold change /veh PODN (11730768_x_at) / RFU LINC00158 (11744669_a_at) / Fold change /veh LINC00158 (11744669_a_at) / RFU DUSP10 (11751237_a_at) / Fold change /veh DUSP10 (11751237_a_at) / RFU ID3 (11757404_x_at) / Fold change /veh ID3 (11757404_x_at) / RFU PLEKHG5 (11737974_s_at) / Fold change /veh PLEKHG5 (11737974_s_at) / RFU LRRC4B (11730491_at) / Fold change /veh LRRC4B (11730491_at) / RFU GIMAP4 (11747438_a_at) / Fold change /veh GIMAP4 (11747438_a_at) / RFU KRT8 (11758183_x_at) / Fold change /veh KRT8 (11758183_x_at) / RFU CNN1 (11734310_a_at) / Fold change /veh CNN1 (11734310_a_at) / RFU VPS37D (11726825_at) / Fold change /veh VPS37D (11726825_at) / RFU C10orf10 (11716522_x_at) / Fold change /veh C10orf10 (11716522_x_at) / RFU KIR2DL2 /// KIR2DL4 /// KIR2DL5A /// KIR2DL5B /// KIR2DS1 /// KIR2DS2 /// KIR2DS3 /// KIR2DS4 /// KIR3DL3 /// KIR3DL3 /// KIR3DS1 (11738374_at) / Fold change /veh KIR2DL2 /// KIR2DL4 /// KIR2DL5A /// KIR2DL5B /// KIR2DS1 /// KIR2DS2 /// KIR2DS3 /// KIR2DS4 /// KIR3DL3 /// KIR3DL3 /// KIR3DS1 (11738374_at) / RFU C1QL1 (11718748_at) / Fold change /veh C1QL1 (11718748_at) / RFU TMPRSS4 (11747572_a_at) / Fold change /veh TMPRSS4 (11747572_a_at) / RFU HAMP (11756126_x_at) / Fold change /veh HAMP (11756126_x_at) / RFU RNFT2 (11725882_a_at) / Fold change /veh RNFT2 (11725882_a_at) / RFU NR4A2 (11747474_a_at) / Fold change /veh NR4A2 (11747474_a_at) / RFU ABCC12 (11746883_a_at) / Fold change /veh ABCC12 (11746883_a_at) / RFU TMEM136 (11760407_x_at) / Fold change /veh TMEM136 (11760407_x_at) / RFU CLDN22 /// WWC2 (11732394_at) / Fold change /veh CLDN22 /// WWC2 (11732394_at) / RFU HLA-DPB1 (11760878_x_at) / Fold change /veh HLA-DPB1 (11760878_x_at) / RFU SPINT1 (11716480_a_at) / Fold change /veh SPINT1 (11716480_a_at) / RFU GAP43 (11754022_s_at) / Fold change /veh GAP43 (11754022_s_at) / RFU A4GNT (11735810_at) / Fold change /veh A4GNT (11735810_at) / RFU PRB3 (11715151_x_at) / Fold change /veh PRB3 (11715151_x_at) / RFU TUBB4B (11761932_at) / Fold change /veh TUBB4B (11761932_at) / RFU CAPN14 (11732068_a_at) / Fold change /veh CAPN14 (11732068_a_at) / RFU TMCC2 (11721928_a_at) / Fold change /veh TMCC2 (11721928_a_at) / RFU IRGQ (11745062_a_at) / Fold change /veh IRGQ (11745062_a_at) / RFU FAM174B (11720279_a_at) / Fold change /veh FAM174B (11720279_a_at) / RFU TMPRSS4 (11748680_a_at) / Fold change /veh TMPRSS4 (11748680_a_at) / RFU FAM212B (11763350_a_at) / Fold change /veh FAM212B (11763350_a_at) / RFU PLEKHG5 (11743358_a_at) / Fold change /veh PLEKHG5 (11743358_a_at) / RFU ZSCAN30 (11745921_a_at) / Fold change /veh ZSCAN30 (11745921_a_at) / RFU CMKLR1 (11741424_a_at) / Fold change /veh CMKLR1 (11741424_a_at) / RFU LOC101060620 /// MAPK8IP1 (11723275_at) / Fold change /veh LOC101060620 /// MAPK8IP1 (11723275_at) / RFU SPTSSB (11747773_x_at) / Fold change /veh SPTSSB (11747773_x_at) / RFU PRSS12 (11739890_at) / Fold change /veh PRSS12 (11739890_at) / RFU BIN1 (11741810_x_at) / Fold change /veh BIN1 (11741810_x_at) / RFU WNT11 (11732464_a_at) / Fold change /veh WNT11 (11732464_a_at) / RFU C10orf10 (11716521_a_at) / Fold change /veh C10orf10 (11716521_a_at) / RFU C5orf56 (11738089_at) / Fold change /veh C5orf56 (11738089_at) / RFU CYB561 (11721691_x_at) / Fold change /veh CYB561 (11721691_x_at) / RFU ANKRD19P (11752326_a_at) / Fold change /veh ANKRD19P (11752326_a_at) / RFU OR2T12 /// OR2T33 /// OR2T8 (11738714_s_at) / Fold change /veh OR2T12 /// OR2T33 /// OR2T8 (11738714_s_at) / RFU VCAN (11748164_a_at) / Fold change /veh VCAN (11748164_a_at) / RFU JSRP1 (11732532_at) / Fold change /veh JSRP1 (11732532_at) / RFU KRTAP10-11 (11738290_x_at) / Fold change /veh KRTAP10-11 (11738290_x_at) / RFU MYO3A (11730013_a_at) / Fold change /veh MYO3A (11730013_a_at) / RFU EBF3 (11725865_a_at) / Fold change /veh EBF3 (11725865_a_at) / RFU CAMK2N1 (11719241_x_at) / Fold change /veh CAMK2N1 (11719241_x_at) / RFU C5orf56 (11738088_a_at) / Fold change /veh C5orf56 (11738088_a_at) / RFU OLFML3 (11715873_a_at) / Fold change /veh OLFML3 (11715873_a_at) / RFU LOC100653217 /// NTM (11731650_a_at) / Fold change /veh LOC100653217 /// NTM (11731650_a_at) / RFU MAPK11 (11762145_a_at) / Fold change /veh MAPK11 (11762145_a_at) / RFU FIZ1 (11724087_x_at) / Fold change /veh FIZ1 (11724087_x_at) / RFU OASL (11726364_x_at) / Fold change /veh OASL (11726364_x_at) / RFU SOX15 (11748057_x_at) / Fold change /veh SOX15 (11748057_x_at) / RFU CD79A (11719716_a_at) / Fold change /veh CD79A (11719716_a_at) / RFU HIST1H1D (11736915_at) / Fold change /veh HIST1H1D (11736915_at) / RFU CASKIN2 (11723855_a_at) / Fold change /veh CASKIN2 (11723855_a_at) / RFU LOC730098 (11760151_x_at) / Fold change /veh LOC730098 (11760151_x_at) / RFU OR4N2 (11742367_at) / Fold change /veh OR4N2 (11742367_at) / RFU PRRT2 (11749266_a_at) / Fold change /veh PRRT2 (11749266_a_at) / RFU SNX32 (11753110_a_at) / Fold change /veh SNX32 (11753110_a_at) / RFU CDHR5 (11726645_a_at) / Fold change /veh CDHR5 (11726645_a_at) / RFU RCAN1 (11760418_a_at) / Fold change /veh RCAN1 (11760418_a_at) / RFU FAM167A (11723789_a_at) / Fold change /veh FAM167A (11723789_a_at) / RFU FAM26E (11764081_at) / Fold change /veh FAM26E (11764081_at) / RFU ISYNA1 (11749810_s_at) / Fold change /veh ISYNA1 (11749810_s_at) / RFU ACY1 (11761880_at) / Fold change /veh ACY1 (11761880_at) / RFU 11764098_at / Fold change /veh 11764098_at / RFU SAMD14 (11745864_x_at) / Fold change /veh SAMD14 (11745864_x_at) / RFU NPB (11741838_a_at) / Fold change /veh NPB (11741838_a_at) / RFU TMPRSS6 (11731388_a_at) / Fold change /veh TMPRSS6 (11731388_a_at) / RFU KRTAP10-2 (11738614_at) / Fold change /veh KRTAP10-2 (11738614_at) / RFU ARHGAP8 /// PRR5-ARHGAP8 (11727945_x_at) / Fold change /veh ARHGAP8 /// PRR5-ARHGAP8 (11727945_x_at) / RFU KRTAP5-7 /// NADSYN1 (11734609_at) / Fold change /veh KRTAP5-7 /// NADSYN1 (11734609_at) / RFU RASL12 (11751679_a_at) / Fold change /veh RASL12 (11751679_a_at) / RFU CDKN2B (11736163_a_at) / Fold change /veh CDKN2B (11736163_a_at) / RFU PRF1 (11729649_at) / Fold change /veh PRF1 (11729649_at) / RFU, ZNF638 /// ZNF638-IT1 / Fold change vs veh, ZNF638 /// ZNF638-IT1 / RFU, PANK3 / Fold change vs veh, PANK3 / RFU, SH3YL1 / Fold change vs veh, SH3YL1 / RFU, ZEB2 / Fold change vs veh, ZEB2 / RFU, NRIP1 / Fold change vs veh, NRIP1 / RFU, PTTG1IP / Fold change vs veh, PTTG1IP / RFU, CAPN2 / Fold change vs veh, CAPN2 / RFU, MED14 / Fold change vs veh, MED14 / RFU, SNORA58 / Fold change vs veh, SNORA58 / RFU, C1orf63 / Fold change vs veh, C1orf63 / RFU, LRRFIP1 / Fold change vs veh, LRRFIP1 / RFU, NDUFAF7 / Fold change vs veh, NDUFAF7 / RFU, SLC12A2 / Fold change vs veh, SLC12A2 / RFU, IBTK / Fold change vs veh, IBTK / RFU, ESF1 / Fold change vs veh, ESF1 / Fold change vs veh, TMEM50B / RFU, TAOK1 / Fold change vs veh, TAOK1 / RFU, ACBD3 / Fold change vs veh, ACBD3 / RFU, TMA16 / Fold change vs veh, TMA16 / RFU, RWDD3 / Fold change vs veh, RWDD3 / RFU, BCAT1 / Fold change vs veh, BCAT1 / RFU, EDEM3 / Fold change vs veh, EDEM3 / RFU, TMEM33 / Fold change vs veh, TMEM33 / RFU, WDR75 / Fold change vs veh, WDR75 / RFU, AHCTF1 / Fold change vs veh, AHCTF1 / RFU, TFRC / Fold change vs veh, TFRC / RFU, ZDHHC17 / Fold change vs veh, ZDHHC17 / RFU, NOM1 / Fold change vs veh, NOM1 / RFU, ARL8B / Fold change vs veh, ARL8B / RFU, ZBTB11 / Fold change vs veh, ZBTB11 / RFU, TAMM41 / Fold change vs veh, TAMM41 / RFU, KIAA1704 /// LOC100996395 / Fold change vs veh, KIAA1704 /// LOC100996395 / RFU, ING1 / Fold change vs veh, ING1 / RFU, TRMT61B / Fold change vs veh, TRMT61B / RFU, FUBP3 / Fold change vs veh, FUBP3 / RFU, TP53 / Fold change vs veh, TP53 / RFU, TNKS2 / Fold change vs veh, TNKS2 / RFU, ZFP14 / Fold change vs veh, ZFP14 / RFU, ACTR2 / Fold change vs veh, ACTR2 / RFU, PPP3R1 / Fold change vs veh, PPP3R1 / RFU, PIK3R1 / Fold change vs veh, PIK3R1 / RFU, HNRNPA1 / Fold change vs veh, HNRNPA1 / RFU, RNF170 / Fold change vs veh, RNF170 / RFU, ZNF28 / Fold change vs veh, ZNF28 / RFU, RNGTT / Fold change vs veh, RNGTT / RFU, OGT / Fold change vs veh, OGT / RFU, BRD1 / Fold change vs veh, BRD1 / RFU, MARS / Fold change vs veh, MARS / RFU, ZNF655 / Fold change vs veh, ZNF655 / RFU, FAHD1 / Fold change vs veh, FAHD1 / RFU, BDP1 / Fold change vs veh, BDP1 / RFU, LRRCC1 / Fold change vs veh, LRRCC1 / RFU, ARID1A / Fold change vs veh, ARID1A / RFU, ZNF146 / Fold change vs veh, ZNF146 / RFU, ZNF330 / Fold change vs veh, ZNF330 / RFU, GPN3 / Fold change vs veh, GPN3 / RFU, C9orf123 / Fold change vs veh, C9orf123 / RFU, N4BP2L2 / Fold change vs veh, N4BP2L2 / RFU, ARFIP1 / Fold change vs veh, ARFIP1 / RFU, FAM179B / Fold change vs veh, FAM179B / RFU, BCL10 / Fold change vs veh, BCL10 / RFU, UHRF1BP1L / Fold change vs veh, UHRF1BP1L / RFU, BET1 / Fold change vs veh, BET1 / RFU, CNOT2 / Fold change vs veh, CNOT2 / RFU, ZNF268 / Fold change vs veh, ZNF268 / Fold change vs veh, ZNF507 / RFU, DGCR2 / Fold change vs veh, DGCR2 / RFU, WDSUB1 / Fold change vs veh, WDSUB1 / Fold change vs veh, HSP90B1 /// MIR3652 / RFU, ADSS / Fold change vs veh, ADSS / RFU, GK / Fold change vs veh, GK / RFU, ZNF148 / Fold change vs veh, ZNF148 / RFU, TAF9 / Fold change vs veh, TAF9 / RFU, SLC1A5 / Fold change vs veh, SLC1A5 / RFU, SLMO2 / Fold change vs veh, SLMO2 / RFU, ABCC4 / Fold change vs veh, ABCC4 / RFU, LOC101060439 /// RAP1B / Fold change vs veh, LOC101060439 /// RAP1B / RFU, RFX7 / Fold change vs veh, RFX7 / RFU, GTPBP10 / Fold change vs veh, GTPBP10 / RFU, CNEP1R1 / Fold change vs veh, CNEP1R1 / RFU, BIVM-ERCC5 /// ERCC5 / Fold change vs veh, BIVM-ERCC5 /// ERCC5 / RFU, ILF3 / Fold change vs veh, ILF3 / RFU 11762660_at / Fold change /veh 11762660_at / RFU VCAN (11757783_s_at) / Fold change /veh VCAN (11757783_s_at) / RFU DDX43 (11728927_at) / Fold change /veh DDX43 (11728927_at) / RFU KRT8 (11758188_x_at) / Fold change /veh KRT8 (11758188_x_at) / RFU NKD1 (11759106_at) / Fold change /veh NKD1 (11759106_at) / RFU SRD5A1 (11742802_a_at) / Fold change /veh SRD5A1 (11742802_a_at) / RFU TPSAB1 /// TPSB2 (11721975_s_at) / Fold change /veh TPSAB1 /// TPSB2 (11721975_s_at) / RFU GSTM3 (11746129_a_at) / Fold change /veh GSTM3 (11746129_a_at) / RFU IL23R (11737362_x_at) / Fold change /veh IL23R (11737362_x_at) / RFU TMEM51 (11727254_a_at) / Fold change /veh TMEM51 (11727254_a_at) / RFU PIWIL2 (11732686_x_at) / Fold change /veh PIWIL2 (11732686_x_at) / RFU ORM1 (11744905_x_at) / Fold change /veh ORM1 (11744905_x_at) / RFU CCDC152 (11743942_at) / Fold change /veh CCDC152 (11743942_at) / RFU ECM1 (11717891_a_at) / Fold change /veh ECM1 (11717891_a_at) / RFU IL23R (11748794_a_at) / Fold change /veh IL23R (11748794_a_at) / RFU TNFAIP8L3 (11732012_x_at) / Fold change /veh TNFAIP8L3 (11732012_x_at) / RFU MBOAT4 (11741988_at) / Fold change /veh MBOAT4 (11741988_at) / RFU 11764193_at / Fold change /veh 11764193_at / RFU TMEM53 (11763286_at) / Fold change /veh TMEM53 (11763286_at) / RFU MAGEB2 (11727129_at) / Fold change /veh MAGEB2 (11727129_at) / RFU TMEM200A (11744735_a_at) / Fold change /veh TMEM200A (11744735_a_at) / RFU CCDC152 (11751479_a_at) / Fold change /veh CCDC152 (11751479_a_at) / RFU FAM211A (11726209_a_at) / Fold change /veh FAM211A (11726209_a_at) / RFU RGS16 (11746705_a_at) / Fold change /veh RGS16 (11746705_a_at) / RFU VCAN (11755009_s_at) / Fold change /veh VCAN (11755009_s_at) / RFU RHOB (11743442_s_at) / Fold change /veh RHOB (11743442_s_at) / RFU RGS16 (11720943_a_at) / Fold change /veh RGS16 (11720943_a_at) / RFU RGS16 (11720944_at) / Fold change /veh RGS16 (11720944_at) / RFU, VPS4B / Fold change vs veh, VPS4B / RFU, CREB1 / Fold change vs veh, CREB1 / RFU, DNAJC13 / Fold change vs veh, DNAJC13 / RFU, GNAQ / Fold change vs veh, GNAQ / RFU, CDK5R1 / Fold change vs veh, CDK5R1 / RFU, ZRANB3 / Fold change vs veh, ZRANB3 / RFU, CUL4A / Fold change vs veh, CUL4A / RFU, CCNY / Fold change vs veh, CCNY / RFU, UFL1 / Fold change vs veh, UFL1 / RFU, COG3 / Fold change vs veh, COG3 / RFU, DIAPH2 / Fold change vs veh, DIAPH2 / RFU, SKA2 / Fold change vs veh, SKA2 / RFU, AFF3 / Fold change vs veh, AFF3 / RFU, LMF1 / Fold change vs veh, LMF1 / RFU, IPO11 / Fold change vs veh, IPO11 / RFU, DFFB / Fold change vs veh, DFFB / RFU, FOXP1 / Fold change vs veh, FOXP1 / RFU, CARD8 / Fold change vs veh, CARD8 / RFU, STRN3 / Fold change vs veh, STRN3 / RFU, ADK / Fold change vs veh, ADK / RFU, RASSF2 / Fold change vs veh, RASSF2 / RFU, WIPF1 / Fold change vs veh, WIPF1 / RFU, LARP1B / Fold change vs veh, LARP1B / RFU, RASA1 / Fold change vs veh, RASA1 / RFU, RB1 / Fold change vs veh, RB1 / RFU, PPFIA1 / Fold change vs veh, PPFIA1 / RFU, MAT2A / Fold change vs veh, MAT2A / RFU, CCT5 / Fold change vs veh, CCT5 / RFU, WDR92 / Fold change vs veh, WDR92 / RFU, CUX1 / Fold change vs veh, CUX1 / RFU, TTC7A / Fold change vs veh, TTC7A / RFU, TMEM135 / Fold change vs veh, TMEM135 / RFU, DEPTOR / Fold change vs veh, DEPTOR / RFU, CPM / Fold change vs veh, CPM / RFU, DNAJB6 / Fold change vs veh, DNAJB6 / RFU, CACNA2D3 / Fold change vs veh, CACNA2D3 / RFU, DTX4 / Fold change vs veh, DTX4 / RFU, TFCP2 / Fold change vs veh, TFCP2 / RFU, GMCL1 /// GMCL1P1 / Fold change vs veh, GMCL1 /// GMCL1P1 / RFU, AEBP2 / Fold change vs veh, AEBP2 / RFU, SNHG1 /// SNORD22 /// SNORD25 /// SNORD26 /// SNORD27 /// SNORD28 /// SNORD29 /// SNORD31 / Fold change vs veh, SNHG1 /// SNORD22 /// SNORD25 /// SNORD26 /// SNORD27 /// SNORD28 /// SNORD29 /// SNORD31 / Fold change (Aza/veh), C12orf56 (ProbeSet 11735607_a_at) / Fold change (ACY-1035/veh), C12orf56 (ProbeSet 11735607_a_at) / Fold change (Aza/veh), FGFR1OP (ProbeSet 11751329_s_at) / Fold change (ACY-1035/veh), FGFR1OP (ProbeSet 11751329_s_at) / Fold change (Aza/veh), VPS36 (ProbeSet 11739960_a_at) / Fold change (ACY-1035/veh), VPS36 (ProbeSet 11739960_a_at) / RFU SYPL1 (11715823_x_at) / Fold change /veh SYPL1 (11715823_x_at) / RFU IGFBP7 (11715501_s_at) / Fold change /veh IGFBP7 (11715501_s_at) / RFU REEP3 (11722064_at) / Fold change /veh REEP3 (11722064_at) / RFU IGLL1 (11728026_x_at) / Fold change /veh IGLL1 (11728026_x_at): dose or concentration left out as unconfirmed
Settings: MV-4-11 cells, 48 hours

## Nc1ccc(-c2cccs2)cc1NC(=O)c1ccc2c(c1)cc(C1CC1)n2CCN1CCOCC1 [ACY-1035]
  Fold change /veh IRGQ (11745062_a_at): 0.91
